The values that follow come from ChEMBL document CHEMBL1125807, “Synthesis and preliminary evaluation of (+)-CBI-indole2: an enhanced functional analog of (+)-CC-1065” (Bioorg Med Chem Lett, 1991).

The test system of data set [1] is Nucleic Acid. The experiment in a line: Percent alkylation at the high affinity alkylation site [5'-d(AATB)-3'] within w794 DNA at 4 degrees C, 24 h. It counts as functional.
For data set [2], the system named is Mus musculus. In words: Survivors at day 18 at 29 ug/kg.day; value is given as 1/6 and no evidence of residual tumor found. It counts as functional, organism-based.
The test system of data set [3] is Mus musculus. The experiment in a line: Survivors at day 18 at 39 ug/kg.day; value is given as 4/6 and no evidence of residual tumor found. The data set is classed as functional, organism-based.
For data set [4], the system named is Mus musculus. The experiment in a line: In vivo antitumor activity of 29 ug/kg.day subcutaneously administered compound against Ip implanted L1210 tumor in mouse. The data set is classed as functional.
In data set [5] the test system is Mus musculus. The experiment in a line: In vivo antitumor activity of 5 ug/kg.day subcutaneously administered compound against Ip implanted L1210 tumor in mouse. The data set is classed as functional.
For data set [6], the system named is Mus musculus. In words: In vivo antitumor activity of 39 ug/kg.day subcutaneously administered compound against Ip implanted L1210 tumor in mouse. The data set is classed as functional.
Data set [7] concerns L1210. In words: Inhibitory concentration required for 50% in vitro cytotoxic activity was determined against L1210 mouse lymphocytic leukemia at 10 pM. It counts as functional, cell-based.
For data set [8], the system named is Nucleic Acid. The experiment in a line: Relative intensity of DNA alkylation at the high affinity alkylation site [5'-d(AATB)-3'] within w794 DNA at 4 degrees C, 24 h. It counts as functional.
Data set [9] is described as follows: Relative stability based on solvolysis studies. The data set is classed as physicochemical.
Data set [10] has as its system Nucleic Acid. In words: Relative fist order rate constant for alkylation at the high affinity site of DNA. The data set is classed as functional.
The test system of data set [11] is L1210. The experiment in a line: Relative IC50 for in vitro cytotoxic activity against L1210 mouse lymphocytic leukemia. It counts as functional.
The subject of data set [12] is Mus musculus. The experiment in a line: In vivo antitumor activity of 10 ug/kg.day subcutaneously administered compound against Ip implanted L1210 tumor in mouse. It counts as functional.
The species named for data set [13] is Mus musculus. In words: Relative cytotoxic activity against mouse L1210 leukemia. It counts as functional.
A short description of data set [14]: Half-life was determined. It counts as ADME. To be noted: human.
Data set [15] has as its system Mus musculus. In words: In vivo antitumor activity of 19 ug/kg.day subcutaneously administered compound against Ip implanted L1210 tumor in mouse. The data set is classed as functional.
Data set [16] deals with L1210. In words: Inhibitory concentration required for 50% in vitro cytotoxic activity was determined against L1210 mouse lymphocytic leukemia at 40 pM. The data set is classed as functional, cell-based.
In data set [17] the test system is Mus musculus. The experiment in a line: In vivo antitumor activity of 75 ug/kg.day subcutaneously administered compound against P388 leukemia in mouse. It counts as functional.
Data set [18] relates to Nucleic Acid. The experiment in a line: Percent alkylation at the high affinity alkylation site [5'-d(AATB)-3'] within w794 DNA at 4 degrees C, 24 h; range is 5-10 %. The data set is classed as functional.

Converted amounts (≈) assume the structure as drawn. “And” between values parts separate entries of the source, which are not always exact repeats. Identical values can stand only once.

For orientation: IC50 means the point on the concentration scale where inhibition reaches its midpoint. Low readings indicate greater potency, high ones weaker potency. For orientation: half-life means the time needed for the level to fall by half in the phase considered. Take `O=C(Nc1ccc2[nH]c(C(=O)N3C[C@H]4C[C@@]45C3=CC(=O)c3ccccc35)cc2c1)c1cc2ccccc2[nH]1`: the DNA alkylation in data set [1] was 93%. The Survivors entry in [2] and in data set [3] was “No evidence of residual tumor found” in each case. Also, the T/C in data set [4] is given as >175; in data set [5], 120; in data set [6] it was >200; in data set [12], 156; in data set [15], 162. The same compound registered a half-maximal inhibitory concentration (IC50) in data set [7] of 0.005 ng/mL (≈ 0.01 nM). Further, the Relative intensity in data set [8] was determined as 1. This compound also gave a Relative stability in data set [9] of 1. The compound further gave a rel k in data set [10] of 1. For the same compound, the Cytotoxic activity in data set [11] is recorded as 1. The compound also returned a Relative cytotoxic activity in data set [13] of 1. Also, the half-life in data set [14] is 133 h.
With `Cc1c[nH]c2c1C13CC1CN(C(=O)c1cc4cc(NC(=O)c5cc6ccccc6[nH]5)ccc4[nH]1)C3=CC2=O` (single isomer, unassigned; (+)), the T/C was 118 in data set [4]; 259 in [17]; 129 in data set [6]; 114 and 133 in data set [12]; 113 in data set [15]. For the same compound, the IC50 in data set [16] came out at 0.02 ng/mL (≈ 0.0399 nM). In data set [8], this compound showed a Relative intensity of 0.1. The compound also showed a Relative stability in data set [9] of 0.27. The rel k in data set [10] turned out to be 0.07. In data set [18], this compound gave a DNA alkylation of 10%. Besides, the Cytotoxic activity in data set [11] worked out at 0.25. The Relative cytotoxic activity in [13] came to 0.25. The compound further gave a half-life in data set [14] of 36.7 h.
